Numbers after ± are expanded uncertainties.
How the values were obtained:
[1] = molar heat capacity at constant pressure; conditions: Liquid, calorimeter with the thermal relaxation.
[2] = molar heat capacity at constant pressure; xn = mol fraction of the nth substance listed; conditions: Liquid, calorimeter with the thermal relaxation.

N [ammonia]
[1]
Conditions	molar heat capacity at constant pressure [J/K/mol]
280 K, 1000 kPa	76.81 ± 2
280 K, 5000 kPa	75.62 ± 4.6
300 K, 5000 kPa	76.81 ± 3.4
320 K, 5000 kPa	77.83 ± 2
360 K, 5000 kPa	95.2 ± 1.7
360 K, 10000 kPa	92.82 ± 1.7
360 K, 15000 kPa	90.26 ± 3.1

N [ammonia] + O
molar heat capacity at constant pressure [J/K/mol], [2]
Conditions	x2 = 0	x2 = 0.1566	x2 = 0.1597	x2 = 0.303	x2 = 0.3048	x2 = 0.4956	x2 = 0.7061	x2 = 0.8489
280 K, 100 kPa	–	–	–	–	–	–	68.95 ± 1.4	70.04 ± 1.4
280 K, 1000 kPa	76.81 ± 2	76.13 ± 1.9	–	71.92 ± 1.7	–	76.38 ± 1.6	69.48 ± 1.6	70.93 ± 1.4
280 K, 5000 kPa	75.62 ± 4.6	74.58 ± 4.3	–	74.17 ± 4	–	76.03 ± 3.9	72.68 ± 3.7	72.89 ± 3.6
300 K, 100 kPa	–	–	–	–	–	–	–	73.25 ± 0.54
300 K, 1000 kPa	–	78.19 ± 2.9	–	77.63 ± 2.8	–	80.94 ± 2.8	75.33 ± 2.7	74.86 ± 2.5
300 K, 5000 kPa	76.81 ± 3.4	76.13 ± 3.3	–	77.29 ± 3.1	–	78.83 ± 3	76.58 ± 2.8	74.86 ± 2.7
320 K, 1000 kPa	–	–	–	–	–	79.71 ± 2.1	75.51 ± 1.9	73.97 ± 2
320 K, 5000 kPa	77.83 ± 2	77.85 ± 1.9	–	80.93 ± 1.7	–	82.86 ± 1.8	79.41 ± 1.6	77.18 ± 1.6
360 K, 1000 kPa	–	–	–	–	–	–	79.77 ± 1.1	76.11 ± 0.89
360 K, 5000 kPa	95.2 ± 1.7	–	85.94 ± 1.4	–	84.92 ± 1.2	83.21 ± 1.2	81.72 ± 1.1	77.54 ± 1.1
360 K, 10000 kPa	92.82 ± 1.7	–	86.97 ± 1.4	–	88.21 ± 1.4	85.32 ± 1.1	84.55 ± 1.1	80.04 ± 1.1
360 K, 15000 kPa	90.26 ± 3.1	–	86.11 ± 2.6	–	86.65 ± 2.4	85.84 ± 2.3	84.73 ± 2.1	79.69 ± 2.1
